From US10307357B2, “Prebiotic oral care compositions containing an alkyl glycoside” (COLGATE-PALMOLIVE COMPANY, priority 2013, dated 2019)

Columns and labels:
Assay type in all cases: cell-based
[1] = tested on: Capnocytophaga sputigena; assay: Twenty-four hour biofilm growth (crystal violet); settings: 24 hours, control = 1
Method: (§1) The increase in biofilm formation of the tested bacteria in response to selected glycosides (β-methyl-D-galactoside and α-methyl-D-galactoside) was investigated by setting up biofilm growth assays in a nutritionally rich medium (brain heart infusion broth (BHI), Oxoid), over 24 hours. Late exponential growth phase liquid cultures were prepared by transferring the respective bacterium from blood agar plates to BHI and overnight incubation at 37° C. in an anaerobic atmosphere for A. viscosus, V. parvula, P. gingivalis, P. intermedia, T. forsythia, A. naeslundii, and C. sputigena, and in a 5% CO2 environment for S. salivarius, S. sanguinis, S. mitis, A. actinomycetemcomitans, S. mutans, and S. gordonii. Overnight cultures were transferred to BHI and adjusted to a concentration of 1×10^7 CFU/ml by measuring the optical density at 600 nm (OD600) (BioRad SmartSpec 3000). For each strain, 200 μl of the bacterial suspension was added to a 96-well plate containing 20 μl of the respective glycosides. Final concentrations of the glycosides were set to 5, 10, 20 and 25 μmol/ml. […] Additionally, for each bacterium tested, a background control, to correct for background staining, was added. This background control contained the bacterium tested and 0.03 weight % chlorhexidine, as an antiseptic. Plates were incubated as previously described. After 24 hrs the supernatant was removed from the wells of the plates. The wells were washed twice with 1×100 μL PBS (phosphate buffered saline), fixed for 20 minutes with 96% vol. ethanol (96% vol. solution in water) and the biofilm retained at the bottom of the wells was stained with 1 weight % crystal violet (1 weight % solution in water). The bound dye was dissolved with 5% vol. acetic acid (5% vol. solution in water). Quantification of the stained biofilm was performed by measuring the absorbance at 630 nm using a Multiskan Ascent microplate reader (Thermo Scientific). […] The experiment was carried out on three different days (thus providing 3 biological replicas) and each day the experiment was carried out in quadruple (thus providing 4 technical replicas) for each combination of bacterium with glycoside and for each control. For each day and for each combination, the average (mean) of the values obtained (as detailed above) for the four technical replicas was calculated to provide a single value for each combination on each day. The values shown in Tables 7 to 8, below, are the average (mean) of the three single values obtained for each combination of bacterium with glycoside.

[2] = tested on: Porphyromonas gingivalis; assay: Twenty-four hour biofilm growth (crystal violet); settings: 24 hours, control = 1
Method: as §1

[3] = tested on: Streptococcus gordonii; assay: Twenty-four hour biofilm growth (crystal violet); settings: 24 hours, control = 1
Method: as §1

[4] = tested on: Streptococcus mitis; assay: Twenty-four hour biofilm growth (crystal violet); settings: 24 hours, control = 1
Method: as §1

[5] = tested on: Streptococcus sanguinis; assay: Twenty-four hour biofilm growth (crystal violet); settings: 24 hours, control = 1
Method: as §1

[6] = tested on: Tannerella forsythia; assay: Twenty-four hour biofilm growth (crystal violet); settings: 24 hours, control = 1
Method: as §1

[7] = tested on: Veillonella parvula; assay: Twenty-four hour biofilm growth (crystal violet); settings: 24 hours, control = 1
Method: as §1

[8] = tested on: beneficial oral bacteria and pathogenic oral bacteria; assay: Microarray screen, conclusion over the panel; settings: at 24 hrs and at 48 hrs; threshold 2
Method: Substrates that were able to increase the metabolic activity of at least one of the above beneficial bacteria while not or only minimally increasing the growth of the pathogenic bacteria are considered to be prebiotic substrates. The extent of metabolic activity of the tested bacteria in the presence of the above-mentioned glycosides after 24 hours and 48 hours was investigated through a high throughput phenotype microarray system (PM) for microbial cells (Biolog Inc.). Each PM can contain up to 95 different biochemical compounds (e.g. glycosides) that may act as substrates for bacteria as well as one negative control, not containing the substrates. Microarray plates were used in which the different wells of each plate were pre-loaded (by the manufacturer, Biolog Inc.) with different glycosides to be tested. […] Color changes were measured spectrophotometrically at 492 nm (Thermo Scientific Multiskan Ascent) at 24 hrs and 48 hrs using the same plate at both time points. […] After 24 hrs and 48 hrs under continuous shaking in a Multiscan microplate reader, the optical density (OD) of the synthetic medium at 24 hours and 48 hours was measured (using the microplate reader) at a wavelength of 492 nm for each combination of bacterium/glycoside, and for each of their respective controls (i.e. which contained the particular bacterium but no glycosides). […]

Structure (SMILES): CO[C@H]1O[C@H](CO)[C@H](O)[C@H](O)[C@H]1O [α-methyl-D-galactoside]
- biofilm OD 630 nm divided by control (biofilm growth) ([1]; 5 μmol/ml): 0.9689
- biofilm OD 630 nm divided by control (biofilm growth) ([1]; 10 μmol/ml): 1.0025
- biofilm OD 630 nm divided by control (biofilm growth) ([1]; 20 μmol/ml): 1.1142
- biofilm OD 630 nm divided by control (biofilm growth) ([1]; 25 μmol/ml): 0.9669
- biofilm OD 630 nm divided by control (biofilm growth) ([2]; 5 μmol/ml): 0.9047
- biofilm OD 630 nm divided by control (biofilm growth) ([2]; 10 μmol/ml): 0.9772
- biofilm OD 630 nm divided by control (biofilm growth) ([2]; 20 μmol/ml): 0.9820
- biofilm OD 630 nm divided by control (biofilm growth) ([2]; 25 μmol/ml): 1.0029
- biofilm OD 630 nm divided by control (biofilm growth) ([3]; 5 μmol/ml): 0.6940
- biofilm OD 630 nm divided by control (biofilm growth) ([3]; 10 μmol/ml): 0.6458
- biofilm OD 630 nm divided by control (biofilm growth) ([3]; 20 μmol/ml): 0.6465
- biofilm OD 630 nm divided by control (biofilm growth) ([3]; 25 μmol/ml): 0.6859
- biofilm OD 630 nm divided by control (biofilm growth) ([4]; 5 μmol/ml): 1.4898
- biofilm OD 630 nm divided by control (biofilm growth) ([4]; 10 μmol/ml): 1.2441
- biofilm OD 630 nm divided by control (biofilm growth) ([4]; 20 μmol/ml): 1.3917
- biofilm OD 630 nm divided by control (biofilm growth) ([4]; 25 μmol/ml): 1.2800
- biofilm OD 630 nm divided by control (biofilm growth) ([5]; 5 μmol/ml): 2.6029
- biofilm OD 630 nm divided by control (biofilm growth) ([5]; 10 μmol/ml): 2.4812
- biofilm OD 630 nm divided by control (biofilm growth) ([5]; 20 μmol/ml): 2.1593
- biofilm OD 630 nm divided by control (biofilm growth) ([5]; 25 μmol/ml): 2.4656
- biofilm OD 630 nm divided by control (biofilm growth) ([6]; 5 μmol/ml): 0.7627
- biofilm OD 630 nm divided by control (biofilm growth) ([6]; 10 μmol/ml): 1.0506
- biofilm OD 630 nm divided by control (biofilm growth) ([6]; 20 μmol/ml): 0.8302
- biofilm OD 630 nm divided by control (biofilm growth) ([6]; 25 μmol/ml): 1.0929
- biofilm OD 630 nm divided by control (biofilm growth) ([7]; 5 μmol/ml): 1.0323
- biofilm OD 630 nm divided by control (biofilm growth) ([7]; 10 μmol/ml): 1.0615
- biofilm OD 630 nm divided by control (biofilm growth) ([7]; 20 μmol/ml): 1.0577
- biofilm OD 630 nm divided by control (biofilm growth) ([7]; 25 μmol/ml): 1.1040
- prebiotic effect (metabolic activity), in words [8]: exhibited prebiotic effects

Structure (SMILES): CO[C@@H]1O[C@H](CO)[C@H](O)[C@H](O)[C@H]1O [β-methyl-D-galactoside]
- biofilm OD 630 nm divided by control (biofilm growth) ([1]; 5 μmol/ml): 0.7253
- biofilm OD 630 nm divided by control (biofilm growth) ([1]; 10 μmol/ml): 0.8100
- biofilm OD 630 nm divided by control (biofilm growth) ([1]; 20 μmol/ml): 0.8487
- biofilm OD 630 nm divided by control (biofilm growth) ([1]; 25 μmol/ml): 0.9428
- biofilm OD 630 nm divided by control (biofilm growth) ([2]; 5 μmol/ml): 0.9407
- biofilm OD 630 nm divided by control (biofilm growth) ([2]; 10 μmol/ml): 0.9326
- biofilm OD 630 nm divided by control (biofilm growth) ([2]; 20 μmol/ml): 0.9049
- biofilm OD 630 nm divided by control (biofilm growth) ([2]; 25 μmol/ml): 0.9163
- biofilm OD 630 nm divided by control (biofilm growth) ([3]; 5 μmol/ml): 0.7601
- biofilm OD 630 nm divided by control (biofilm growth) ([3]; 10 μmol/ml): 0.6695
- biofilm OD 630 nm divided by control (biofilm growth) ([3]; 20 μmol/ml): 0.6763
- biofilm OD 630 nm divided by control (biofilm growth) ([3]; 25 μmol/ml): 0.6429
- biofilm OD 630 nm divided by control (biofilm growth) ([4]; 5 μmol/ml): 1.3127
- biofilm OD 630 nm divided by control (biofilm growth) ([4]; 10 μmol/ml): 1.1242
- biofilm OD 630 nm divided by control (biofilm growth) ([4]; 20 μmol/ml): 1.1524
- biofilm OD 630 nm divided by control (biofilm growth) ([4]; 25 μmol/ml): 1.1692
- biofilm OD 630 nm divided by control (biofilm growth) ([5]; 5 μmol/ml): 1.8586
- biofilm OD 630 nm divided by control (biofilm growth) ([5]; 10 μmol/ml): 2.3853
- biofilm OD 630 nm divided by control (biofilm growth) ([5]; 20 μmol/ml): 2.3700
- biofilm OD 630 nm divided by control (biofilm growth) ([5]; 25 μmol/ml): 2.4211
- biofilm OD 630 nm divided by control (biofilm growth) ([6]; 5 μmol/ml): 0.7494
- biofilm OD 630 nm divided by control (biofilm growth) ([6]; 10 μmol/ml): 0.6979
- biofilm OD 630 nm divided by control (biofilm growth) ([6]; 20 μmol/ml): 0.9049
- biofilm OD 630 nm divided by control (biofilm growth) ([6]; 25 μmol/ml): 0.8051
- biofilm OD 630 nm divided by control (biofilm growth) ([7]; 5 μmol/ml): 1.0106
- biofilm OD 630 nm divided by control (biofilm growth) ([7]; 10 μmol/ml): 1.0266
- biofilm OD 630 nm divided by control (biofilm growth) ([7]; 20 μmol/ml): 1.0191
- biofilm OD 630 nm divided by control (biofilm growth) ([7]; 25 μmol/ml): 1.0384
- prebiotic effect (metabolic activity), in words [8]: exhibited prebiotic effects
